{"source": "ChEMBL document CHEMBL5257035", "about": "“Nucleoside Derived Antibiotics to Fight Microbial Drug Resistance: New Utilities for an Established Class of Drugs?” (J Med Chem, 2016)", "key": {"Streptococcus pyogenes": {"system": "Streptococcus pyogenes", "test": "Antimicrobial activity against Streptococcus pyogenes ATCC 12344 assessed as reduction in microbial growth by broth microdilution method", "type": "functional"}, "Candida albicans [1]": {"system": "Candida albicans", "test": "Antifungal activity against Candida albicans assessed as fungal growth inhibition measured after 24 hrs by micro broth dilution method", "type": "functional"}, "Cryptococcus neoformans [2]": {"system": "Cryptococcus neoformans", "test": "Antifungal activity against Cryptococcus neoformans assessed as fungal growth inhibition measured after 24 hrs by micro broth dilution method", "type": "functional"}, "Aspergillus fumigatus [3]": {"system": "Aspergillus fumigatus", "test": "Antifungal activity against Aspergillus fumigatus assessed as fungal growth inhibition", "type": "functional"}, "Staphylococcus aureus [4]": {"system": "Staphylococcus aureus", "test": "Antimicrobial activity against methicillin-resistant Staphylococcus aureus assessed as reduction in microbial growth by broth microdilution method", "type": "functional"}, "Enterococcus faecalis": {"system": "Enterococcus faecalis", "test": "Antimicrobial activity against Enterococcus faecalis 10785 assessed as reduction in microbial growth by broth microdilution method", "type": "functional"}, "Aspergillus fumigatus [5]": {"system": "Aspergillus fumigatus", "test": "Antifungal activity against Aspergillus fumigatus assessed as inhibition of fungal growth", "type": "functional"}, "Candida albicans [6]": {"system": "Candida albicans", "test": "Antifungal activity against Candida albicans assessed as inhibition of fungal growth", "type": "functional"}, "Pseudomonas aeruginosa [7]": {"system": "Pseudomonas aeruginosa", "test": "Antimicrobial activity against Pseudomonas aeruginosa ATCC 27853 assessed as inhibition of microbial growth"}, "[8]": {"test": "Inhibition of Candida albicans chitin synthase"}, "Candida albicans [9]": {"system": "Candida albicans", "test": "Inhibition of Candida albicans chitin synthase at 1 uM relative to control"}, "[10]": {"test": "Inhibition of Candida albicans SC5314 chitin synthase using UDP-GlcNAc as substrate incubated for 1 hr"}, "Pseudomonas aeruginosa [11]": {"system": "Pseudomonas aeruginosa", "test": "Antibacterial activity against Pseudomonas aeruginosa ATCC 27853 assessed as bacterial growth inhibition at 32 ug/ml measured after 16 hrs by broth microdilution method", "type": "functional", "conditions": "dose 32 µg/ml"}, "Cryptococcus neoformans [12]": {"system": "Cryptococcus neoformans", "test": "Antifungal activity against Cryptococcus neoformans assessed as fungal growth inhibition", "type": "functional"}, "Fusarium oxysporum": {"system": "Fusarium oxysporum", "test": "Antifungal activity against Fusarium oxysporum assessed as inhibition of fungal growth", "type": "functional"}, "Candida albicans [13]": {"system": "Candida albicans", "test": "Antifungal activity against Candida albicans B-311 assessed as reduction fungal growth incubated for 16 hrs by microbroth dilution method", "type": "functional"}, "Cryptococcus neoformans [14]": {"system": "Cryptococcus neoformans", "test": "Antifungal activity against Cryptococcus neoformans assessed as reduction in fungal growth", "type": "functional"}, "Coccidioides immitis": {"system": "Coccidioides immitis", "test": "Antifungal activity against Coccidioides immitis assessed as reduction in fungal growth", "type": "functional"}, "Aspergillus niger": {"system": "Aspergillus niger", "test": "Antifungal activity against Aspergillus niger MTCC 282 assessed as reduction in microbial growth measured after 48 hrs by broth dilution method", "type": "functional"}, "Pseudomonas aeruginosa [15]": {"system": "Pseudomonas aeruginosa", "test": "Antibacterial activity against Pseudomonas aeruginosa assessed as reduction in bacterial growth", "type": "functional"}, "Staphylococcus aureus [16]": {"system": "Staphylococcus aureus", "test": "Antibacterial activity against methicillin-resistant Staphylococcus aureus assessed as reduction in bacterial growth by broth dilution method", "type": "functional"}, "[17]": {"target": "Phospho-N-acetylmuramoyl-pentapeptide-transferase (Bacillus subtilis (strain 168), UniProt Q03521)", "sequence (Q03521 whole entry)": "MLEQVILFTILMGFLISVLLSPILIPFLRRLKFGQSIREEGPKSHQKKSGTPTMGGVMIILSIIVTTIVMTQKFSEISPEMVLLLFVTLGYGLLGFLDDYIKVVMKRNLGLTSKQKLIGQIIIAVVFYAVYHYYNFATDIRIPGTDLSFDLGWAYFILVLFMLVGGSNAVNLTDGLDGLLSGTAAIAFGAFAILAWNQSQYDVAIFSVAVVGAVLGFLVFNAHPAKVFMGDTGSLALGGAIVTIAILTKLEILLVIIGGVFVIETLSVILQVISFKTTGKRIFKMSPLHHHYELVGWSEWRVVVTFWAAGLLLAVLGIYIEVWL", "test": "Inhibition of Bacillus subtilis MraY"}}, "data": [{"smiles": "O=c1[nH]c(=O)n([C@H]2C[C@H](O)[C@@H](CO)O2)cc1F", "note": "[FLOXURIDINE]", "values": [{"measurement": "MIC", "setting": "Streptococcus pyogenes", "value": 0.003, "unit": "µg/mL"}]}, {"smiles": "C=CCSC[C@H]1O[C@@H](n2cnc3c([N+](=O)[O-])cccc32)[C@H](O)[C@@H]1O", "values": [{"measurement": "MIC", "setting": "Candida albicans [1]", "value": 0.19, "unit": "µM"}, {"measurement": "MIC", "setting": "Cryptococcus neoformans [2]", "value": 0.19, "unit": "µM"}, {"measurement": "MIC", "setting": "Aspergillus fumigatus [3]", "value": 0.19, "unit": "µM"}]}, {"smiles": "CC(C)[C@H](O)[C@H](N)C(=O)NCCCN[C@H](C(=O)OC(C)(C)C)[C@@H](O)[C@H]1O[C@@H](n2ccc(=O)[nH]c2=O)[C@H](O[Si](C)(C)C(C)(C)C)[C@@H]1O[Si](C)(C)C(C)(C)C", "values": [{"measurement": "MIC", "setting": "Staphylococcus aureus [4]", "value": 1, "unit": "µg/mL"}, {"measurement": "MIC", "setting": "Enterococcus faecalis", "value": 1, "unit": "µg/mL"}]}, {"smiles": "Nc1ccc(C(=O)OC[C@H]2O[C@@H](n3ccc(=O)[nH]c3=O)[C@H](O)[C@@H]2O)c(O)c1", "values": [{"measurement": "MIC", "setting": "Aspergillus fumigatus [5]", "value": 1000, "unit": "µg/mL"}, {"measurement": "MIC", "setting": "Candida albicans [6]", "value": 1000, "unit": "µg/mL"}]}, {"smiles": "O=C(OC[C@H]1O[C@@H](n2ccc(=O)[nH]c2=O)[C@H](O)[C@@H]1O)c1cc(O)ccc1O", "values": [{"measurement": "MIC", "setting": "Aspergillus fumigatus [5]", "value": 1000, "unit": "µg/mL"}, {"measurement": "MIC", "setting": "Candida albicans [6]", "value": 1000, "unit": "µg/mL"}]}, {"smiles": "C[C@@H](NC(=O)NC(Cc1cccc(O)c1)C(=O)O)C(=O)N[C@H](C(=O)N/C=C1/C[C@@H](O)[C@H](n2ccc(=O)[nH]c2=O)O1)[C@H](C)N(C)C(=O)[C@@H](N)C(N)c1cccc(O)c1", "note": "(stereo partly specified)", "values": [{"measurement": "MIC", "setting": "Pseudomonas aeruginosa [7]", "value": 32, "unit": "µg/mL"}]}, {"smiles": "O=C(OC[C@H]1O[C@@H](n2ccc(=O)[nH]c2=O)[C@H](O)[C@@H]1O)c1ccccc1O", "values": [{"measurement": "MIC", "setting": "Aspergillus fumigatus [5]", "value": 1000, "unit": "µg/mL"}, {"measurement": "MIC", "setting": "Candida albicans [6]", "value": 1000, "unit": "µg/mL"}]}, {"smiles": "O=C(NC[C@@H]1O[C@H](n2ccc(=O)[nH]c2=O)[C@@H](O)[C@H]1O)OCCOCCOC(=O)NC[C@H]1O[C@@H](n2ccc(=O)[nH]c2=O)[C@H](O)[C@@H]1O", "values": [{"measurement": "IC50", "setting": "[8]", "value": 11.8, "unit": "µM"}, {"measurement": "inhibition", "setting": "Candida albicans [9]", "value": 45, "unit": "%"}]}, {"smiles": "N[C@@H](Cc1cc2ccccc2c2ccccc12)C(=O)N[C@@H](C(=O)O)[C@H]1O[C@@H](n2ccc(=O)[nH]c2=O)[C@H](O)[C@@H]1O", "values": [{"measurement": "IC50", "setting": "[10]", "value": 0.31, "unit": "µg/mL"}]}, {"smiles": "CCCCCCCCCCCCCCCCC(=O)NC(CCCCCCCCCCCCCCC)C(=O)[C@H](NCCCC(=O)NCCCCNC(=N)N)[C@H](O[C@@H]1O[C@H](CN)[C@@H](O)[C@H]1O)[C@H]1O[C@@H](n2ccc(=O)[nH]c2=O)[C@H](O)[C@@H]1O", "note": "(stereo partly specified)", "values": [{"measurement": "MIC", "setting": "Pseudomonas aeruginosa [11]", "value": 4, "unit": "µg/mL"}]}, {"smiles": "CC1(C)O[C@@H]2[C@H](O1)[C@@H](Cn1cc(COc3ccc(Cl)cc3)nn1)O[C@H]2n1ccc(=O)[nH]c1=O", "values": [{"measurement": "MIC", "setting": "Cryptococcus neoformans [12]", "value": 8, "unit": "µg/mL"}, {"measurement": "MIC", "setting": "Fusarium oxysporum", "value": 32, "unit": "µg/mL"}, {"measurement": "MIC", "setting": "Candida albicans [6]", "value": 24, "unit": "µg/mL"}]}, {"smiles": "COc1ccc(Cn2c(=O)ccn([C@@H]3O[C@H]([C@H](O)[C@H](NCCCNC(=O)[C@@H](N)[C@@H](O)C(C)C)C(=O)OC(C)(C)C)[C@@H](O[Si](C)(C)C(C)(C)C)[C@H]3O[Si](C)(C)C(C)(C)C)c2=O)cc1", "values": [{"measurement": "MIC", "setting": "Staphylococcus aureus [4]", "value": 4, "unit": "µg/mL"}, {"measurement": "MIC", "setting": "Enterococcus faecalis", "value": 4, "unit": "µg/mL"}]}, {"smiles": "CC(C)C[C@H](N)C(=O)N[C@H](C(=O)N[C@@H](C(=O)O)[C@H]1OC(n2cc(C=O)[nH]c2=O)[C@H](O)[C@@H]1O)[C@H](C)[C@H](O)c1cc(O)ccn1", "note": "(stereo partly specified)", "values": [{"measurement": "MIC", "setting": "Candida albicans [13]", "value": 83, "unit": "µg/mL"}]}, {"smiles": "CCCCCCCCCCCCCCCCC(=O)[C@H](NCCCC(=O)NCCCCNC(=N)N)[C@H](O[C@@H]1O[C@H](CN)[C@@H](O)[C@H]1O)[C@H]1O[C@@H](n2ccc(=O)[nH]c2=O)[C@H](O)[C@@H]1O", "values": [{"measurement": "MIC", "setting": "Pseudomonas aeruginosa [11]", "value": 4, "unit": "µg/mL"}]}, {"smiles": "C[C@@H]([C@H](N)C(=O)N[C@H](C(=O)O)[C@@H]1C[C@@H](O)[C@@H](O)[C@H](n2ccc(=O)[nH]c2=O)O1)[C@H](O)c1ccc(O)cc1", "values": [{"measurement": "MIC", "setting": "Cryptococcus neoformans [14]", "value": 0.25, "unit": "µg/mL"}, {"measurement": "MIC", "setting": "Coccidioides immitis", "value": 0.03, "unit": "µg/mL"}, {"measurement": "MIC", "setting": "Aspergillus niger", "value": 0.03, "unit": "µg/mL"}, {"measurement": "MIC", "setting": "Candida albicans [6]", "value": 0.03, "unit": "µg/mL"}]}, {"smiles": "C[C@H](N)C(=O)N(C)[C@@H](C)[C@H](NC(=O)[C@H](C)NC(=O)N[C@@H](Cc1c[nH]c2ccccc12)C(=O)O)C(=O)N/C=C1/C[C@@H](O)[C@H](n2ccc(=O)[nH]c2=O)O1", "note": "[PACIDAMYCIN D]", "values": [{"measurement": "MIC", "setting": "Pseudomonas aeruginosa [15]", "value": 32, "unit": "µg/mL"}]}, {"smiles": "NC[C@H]1O[C@@H](O[C@@H](c2cn(CCCCCCCCCCOc3ccc(C(=O)c4ccccc4)cc3)nn2)[C@H]2O[C@@H](n3ccc(=O)[nH]c3=O)[C@H](O)[C@@H]2O)[C@H](O)[C@@H]1O", "values": [{"measurement": "MIC", "setting": "Staphylococcus aureus [16]", "value": 8, "unit": "µg/mL"}]}, {"smiles": "C[C@H](N)C(=O)N[C@@H](C)[C@H](NC(=O)[C@H](C)NC(=O)N[C@@H](Cc1c[nH]c2ccccc12)C(=O)O)C(=O)N/C=C1\\O[C@@H](n2ccc(=O)[nH]c2=O)[C@H](O)[C@@H]1O", "values": [{"measurement": "IC50", "setting": "[17]", "value": 0.042, "unit": "µM"}]}]}
